Test results as given in PubChem BioAssay AID284 (DTP/NCI, 2004).
“And” between values parts separate entries of the source, which are not always exact repeats. Equal entries are not always repeated. Toxic doses and inconclusive results are not listed. The calls were made as follows: active = survival T/C of 150% or more; inactive = T/C below 125% in these data.

Test system: BDF1 mice, L1210/MTX-resistant leukemia ip, survival T/C
Test: NCI In Vivo Anticancer Drug Screen. Data for tumor model L1210 Leukemia resistant to Methotrexate; NSC 740 (intraperitoneal) in B6D2F1 (BDF1) mice
Conditions: endpoint: mean survival time, higher = longer survival
Experimental: The antitumor activity of compounds was measured in mice bearing transplantable tumors. Survival or tumor size were measured and the results are expressed as the measurement made in the treated group (T) divided by the measurement made in the vehicle treated control group (C). The tumor model used in this assay is L1210 Leukemia resistant to Methotrexate; NSC 740 (intraperitoneal) in B6D2F1 (BDF1) mice

[1] = dose: 25.0 mg/kg/injection, schedule: Q01DX Z (ip), vehicle: carboxymethylcellulose (CMC)
[2] = dose: 125.0 mg/kg/injection, schedule: Q01DX010 (ip), vehicle: saline
[3] = dose: 250.0 mg/kg/injection, schedule: Q01DX010 (ip), vehicle: saline
[4] = dose: 500.0 mg/kg/injection, schedule: Q01DX010 (ip), vehicle: saline
[5] = dose: 18.0 mg/kg/injection, schedule: Q01DX Z (ip), vehicle: carboxymethylcellulose (CMC)
[6] = dose: 100.0 mg/kg/injection, schedule: Q01DX Z (ip), vehicle: carboxymethylcellulose (CMC)

Measured: T/C

O=C(O)CCCc1ccc(N(CCCl)CCCl)cc1
inactive: dose: 1.0 mg/kg/injection, schedule: Q01DX Z (ip), vehicle: carboxymethylcellulose (CMC) 105 % of control | dose: 2.0 mg/kg/injection, schedule: Q01DX Z (ip), vehicle: carboxymethylcellulose (CMC) 97 % of control | dose: 4.0 mg/kg/injection, schedule: Q01DX Z (ip), vehicle: carboxymethylcellulose (CMC) 96 % of control | dose: 5.0 mg/kg/injection, schedule: Q01DX Z (ip), vehicle: carboxymethylcellulose (CMC) 103 % of control | dose: 6.25 mg/kg/injection, schedule: Q01DX Z (ip), vehicle: carboxymethylcellulose (CMC) 107 % of control | dose: 12.5 mg/kg/injection, schedule: Q01DX Z (ip), vehicle: carboxymethylcellulose (CMC) 95 % of control | [1] 90 % of control

CC(=O)N(C)C
inactive: dose: 62.5 mg/kg/injection, schedule: Q01DX010 (ip), vehicle: saline 90 % of control and 98 % of control | dose: 62.5 mg/kg/injection, schedule: Q01DX Z (ip), vehicle: saline 106 % of control | [2] 102 % of control | dose: 125.0 mg/kg/injection, schedule: Q01DX Z (ip), vehicle: saline 122 % of control | [3] 93 % of control and 100 % of control | [4] 93 % of control | dose: 500.0 mg/kg/injection, schedule: Q01DX Z (ip), vehicle: saline 114 % of control and 88 % of control | dose: 750.0 mg/kg/injection, schedule: Q01DX Z (ip), vehicle: saline 88 % of control | dose: 1000.0 mg/kg/injection, schedule: Q01DX Z (ip), vehicle: methylcellulose (MC) 87 % of control

C[n+]1c2ccccc2nc2c(N)cc(N)cc21
inactive: dose: 3.2 mg/kg/injection, schedule: Q01DX Z (ip), vehicle: other 101 % of control and 110 % of control | dose: 6.3 mg/kg/injection, schedule: Q01DX Z (ip), vehicle: other 116 % of control and 107 % of control | dose: 8.0 mg/kg/injection, schedule: Q01DX010 (ip), vehicle: saline 122 % of control | dose: 12.0 mg/kg/injection, schedule: Q01DX010 (ip), vehicle: saline 114 % of control | dose: 12.5 mg/kg/injection, schedule: Q01DX Z (ip), vehicle: other 103 % of control and 105 % of control | dose: 18.0 mg/kg/injection, schedule: Q01DX010 (ip), vehicle: saline 96 % of control

CCn1cnc2c(=S)nc[nH]c21
inactive: dose: 12.0 mg/kg/injection, schedule: Q01DX Z (ip), vehicle: carboxymethylcellulose (CMC) 95 % of control | dose: 15.6 mg/kg/injection, schedule: Q01DX010 (ip), vehicle: saline 102 % of control | [5] 98 % of control | [1] 121 % of control | dose: 31.3 mg/kg/injection, schedule: Q01DX010 (ip), vehicle: saline 90 % of control | dose: 37.0 mg/kg/injection, schedule: Q01DX Z (ip), vehicle: carboxymethylcellulose (CMC) 89 % of control | [6] 90 % of control | [2] 90 % of control

CS(=O)(=O)OCC(O)C(O)COS(C)(=O)=O (centres undefined)
inactive: dose: 18.8 mg/kg/injection, schedule: Q01DX Z (ip), vehicle: saline 88 % of control | dose: 37.5 mg/kg/injection, schedule: Q01DX Z (ip), vehicle: saline 90 % of control | dose: 75.0 mg/kg/injection, schedule: Q01DX Z (ip), vehicle: saline 101 % of control

CN(C)/N=N/c1nc[nH]c1C(N)=O
inactive: dose: 12.5 mg/kg/injection, schedule: Q01DX010 (ip), vehicle: saline 108 % of control | dose: 25.0 mg/kg/injection, schedule: Q01DX010 (ip), vehicle: saline 118 % of control | dose: 50.0 mg/kg/injection, schedule: Q01DX010 (ip), vehicle: saline 119 % of control | dose: 100.0 mg/kg/injection, schedule: Q01DX010 (ip), vehicle: saline 118 % of control

CCCCn1cnc2c(=S)nc[nH]c21
inactive: dose: 16.0 mg/kg/injection, schedule: Q01DX010 (ip), vehicle: saline 114 % of control | dose: 32.0 mg/kg/injection, schedule: Q01DX010 (ip), vehicle: saline 97 % of control | dose: 64.0 mg/kg/injection, schedule: Q01DX010 (ip), vehicle: saline 105 % of control

CCc1nc(N)nc(N)c1-c1ccc(Cl)cc1
inactive: dose: 9.0 mg/kg/injection, schedule: Q01DX Z (ip), vehicle: carboxymethylcellulose (CMC) 92 % of control | [5] 96 % of control | dose: 36.0 mg/kg/injection, schedule: Q01DX Z (ip), vehicle: carboxymethylcellulose (CMC) 95 % of control

O=c1cn[nH]c(=O)[nH]1
inactive: [2] 93 % of control | [3] 91 % of control and 97 % of control | [4] 86 % of control and 90 % of control

N#CCSc1ncnc2nc[nH]c12
inactive: [1] 101 % of control | dose: 50.0 mg/kg/injection, schedule: Q01DX Z (ip), vehicle: carboxymethylcellulose (CMC) 120 % of control | [6] 111 % of control
